Results published in paper PMC9925730, “Controlled sequential in situ self-assembly and disassembly of a fluorogenic cisplatin prodrug for cancer theranostics” (Nature Communications, 2023).
Values joined by “and” are separate entries in the source; they are usually repeats but may differ in a detail not shown here. Identical values can stand only once.

How the values were obtained:
ALP [1] = target: T1, ALP (Bos taurus, UniProt P19111); test: Dephosphorylated efficacy of P-CyPt towards varying concentrations of ALP (NIR fluorescence); assay type: biochemical
T1 construct: Alkaline phosphatase from bovine; purchased Sigma-Aldrich; host or cells: bovine intestinal mucosa (tissue-derived)
T1 sequence (P19111 20-533): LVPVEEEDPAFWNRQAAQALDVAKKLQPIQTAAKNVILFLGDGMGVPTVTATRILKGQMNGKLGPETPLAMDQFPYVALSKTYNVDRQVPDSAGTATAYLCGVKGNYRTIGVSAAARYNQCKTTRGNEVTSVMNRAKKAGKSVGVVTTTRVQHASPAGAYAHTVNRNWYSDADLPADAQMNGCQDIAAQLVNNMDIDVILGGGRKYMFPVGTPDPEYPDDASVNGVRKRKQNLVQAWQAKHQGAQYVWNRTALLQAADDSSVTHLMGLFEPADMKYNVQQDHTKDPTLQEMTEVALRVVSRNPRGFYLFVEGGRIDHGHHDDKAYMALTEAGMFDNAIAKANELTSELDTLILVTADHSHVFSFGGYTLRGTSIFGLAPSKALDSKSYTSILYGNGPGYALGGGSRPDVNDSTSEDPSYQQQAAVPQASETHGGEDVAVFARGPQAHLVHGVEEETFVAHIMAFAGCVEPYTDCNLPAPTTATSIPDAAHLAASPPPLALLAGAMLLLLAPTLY

ALP [2] = test: as above; assay type: biochemical; details: ALP 0 U/L

## CC1(C)C(/C=C/C2=C3Oc4cc(OP(=O)(O)O)c(Cl)cc4C=C3CCC2)=[N+](CCCNC(=O)[C@@H](Cc2ccccc2)NC(=O)[C@@H](Cc2ccccc2)NC(=O)CCC(=O)[O][Pt]([NH2])([NH2])([OH])([Cl])[Cl])c2ccccc21 [P-CyPt]
ALP [1]; ALP 5 U/L, 10 min, mean of 3 samples
  Normalized FL intensity: 1.71
ALP [1]; ALP 5 U/L, 10 min, single samples
  Normalized FL intensity: 1.648 and 1.73 and 1.752
ALP [1]; ALP 5 U/L, 12 min, mean of 3 samples
  Normalized FL intensity: 1.864
ALP [1]; ALP 5 U/L, 12 min, single samples
  Normalized FL intensity: 1.757 and 1.865 and 1.97
ALP [1]; ALP 5 U/L, 14 min, mean of 3 samples
  Normalized FL intensity: 1.881
ALP [1]; ALP 5 U/L, 14 min, single samples
  Normalized FL intensity: 1.813 and 1.9087 and 1.922
ALP [1]; ALP 10 U/L, 10 min, mean of 3 samples
  Normalized FL intensity: 2.116
ALP [1]; ALP 10 U/L, 10 min, single samples
  Normalized FL intensity: 2.078 and 2.183 and 2.087
ALP [1]; ALP 10 U/L, 12 min, mean of 3 samples
  Normalized FL intensity: 2.286
ALP [1]; ALP 10 U/L, 12 min, single samples
  Normalized FL intensity: 2.204 and 2.296 and 2.357
ALP [1]; ALP 10 U/L, 14 min, mean of 3 samples
  Normalized FL intensity: 2.562
ALP [1]; ALP 10 U/L, 14 min, single samples
  Normalized FL intensity: 2.47 and 2.6 and 2.617
ALP [1]; ALP 10 U/L, 16 min, mean of 3 samples
  Normalized FL intensity: 2.829
ALP [1]; ALP 10 U/L, 16 min, single samples
  Normalized FL intensity: 2.713 and 2.865 and 2.9087
ALP [1]; ALP 20 U/L, 10 min, mean of 3 samples
  Normalized FL intensity: 2.617
ALP [1]; ALP 20 U/L, 10 min, single samples
  Normalized FL intensity: 2.53 and 2.596 and 2.726
ALP [1]; ALP 20 U/L, 12 min, mean of 3 samples
  Normalized FL intensity: 2.996
ALP [1]; ALP 20 U/L, 12 min, single samples
  Normalized FL intensity: 2.926 and 2.987 and 3.074
ALP [1]; ALP 20 U/L, 14 min, mean of 3 samples
  Normalized FL intensity: 3.404
ALP [1]; ALP 20 U/L, 14 min, single samples
  Normalized FL intensity: 3.322 and 3.383 and 3.5087
ALP [1]; ALP 20 U/L, 16 min, mean of 3 samples
  Normalized FL intensity: 3.783
ALP [1]; ALP 20 U/L, 16 min, single samples
  Normalized FL intensity: 3.7 and 3.73 and 3.917
ALP [1]; ALP 50 U/L, 10 min, mean of 3 samples
  Normalized FL intensity: 3.187
ALP [1]; ALP 50 U/L, 10 min, single samples
  Normalized FL intensity: 3.135 and 3.157 and 3.27
ALP [1]; ALP 50 U/L, 12 min, mean of 3 samples
  Normalized FL intensity: 3.6029
ALP [1]; ALP 50 U/L, 12 min, single samples
  Normalized FL intensity: 3.483 and 3.583 and 3.743
ALP [1]; ALP 50 U/L, 14 min, mean of 3 samples
  Normalized FL intensity: 4.096
ALP [1]; ALP 50 U/L, 14 min, single samples
  Normalized FL intensity: 3.9913 and 4.022 and 4.274
ALP [1]; ALP 50 U/L, 16 min, mean of 3 samples
  Normalized FL intensity: 4.5913
ALP [1]; ALP 50 U/L, 16 min, single samples
  Normalized FL intensity: 4.43 and 4.465 and 4.878
ALP [1]; ALP 100 U/L, 10 min, mean of 3 samples
  Normalized FL intensity: 4.5971
ALP [1]; ALP 100 U/L, 10 min, single samples
  Normalized FL intensity: 4.522 and 4.557 and 4.713
ALP [1]; ALP 100 U/L, 12 min, mean of 3 samples
  Normalized FL intensity: 5.171
ALP [1]; ALP 100 U/L, 12 min, single samples
  Normalized FL intensity: 4.861 and 5.296 and 5.357
ALP [1]; ALP 100 U/L, 14 min, mean of 3 samples
  Normalized FL intensity: 5.964
ALP [1]; ALP 100 U/L, 14 min, single samples
  Normalized FL intensity: 5.887 and 5.948 and 6.057
ALP [1]; ALP 100 U/L, 16 min, mean of 3 samples
  Normalized FL intensity: 6.53
ALP [1]; ALP 100 U/L, 16 min, single samples
  Normalized FL intensity: 6.426 and 6.513 and 6.652
ALP [1]; ALP 200 U/L, 10 min, mean of 3 samples
  Normalized FL intensity: 5.588
ALP [1]; ALP 200 U/L, 10 min, single samples
  Normalized FL intensity: 5.343 and 5.613 and 5.8087
ALP [1]; ALP 200 U/L, 12 min, mean of 3 samples
  Normalized FL intensity: 6.483
ALP [1]; ALP 200 U/L, 12 min, single samples
  Normalized FL intensity: 6.217 and 6.557 and 6.674
ALP [1]; ALP 200 U/L, 14 min, mean of 3 samples
  Normalized FL intensity: 6.862
ALP [1]; ALP 200 U/L, 14 min, single samples
  Normalized FL intensity: 6.857 and 6.626 and 7.104
ALP [1]; ALP 500 U/L, 10 min, mean of 3 samples
  Normalized FL intensity: 6.133
ALP [1]; ALP 500 U/L, 10 min, single samples
  Normalized FL intensity: 5.804 and 6.287 and 6.3087
ALP [1]; ALP 500 U/L, 12 min, mean of 3 samples
  Normalized FL intensity: 6.81
ALP [1]; ALP 500 U/L, 12 min, single samples
  Normalized FL intensity: 6.661 and 6.722 and 7.048
ALP [1]; ALP 500 U/L, 14 min, mean of 3 samples
  Normalized FL intensity: 7.207
ALP [1]; ALP 500 U/L, 14 min, single samples
  Normalized FL intensity: 6.848 and 7.161 and 7.613
ALP [2]; 0 min, mean of 3 samples
  Normalized FL intensity: 1.022
ALP [2]; 0 min, single samples
  Normalized FL intensity: 0.9783 and 1.039 and 1.048
ALP [2]; 2 min, mean of 3 samples
  Normalized FL intensity: 1.026
ALP [2]; 2 min, single samples
  Normalized FL intensity: 0.9783 and 1.057 and 1.043
ALP [2]; 4 min, mean of 3 samples
  Normalized FL intensity: 1.02
ALP [2]; 4 min, single samples
  Normalized FL intensity: 1.0087 and 1.035 and 1.017
ALP [2]; 6 min, mean of 3 samples
  Normalized FL intensity: 1.039
ALP [2]; 6 min, single samples
  Normalized FL intensity: 1.087 and 1.03 and 1
